Assay results from patent US20250059185A1 (Hoffmann-La Roche Inc., priority 2021, published 2025).

These compounds were tested against MAGL (Homo sapiens (Human), UniProt Q99685) (assay: 2-AG assay (MAGL inhibitory activity, hydrolysis of 2-arachidonoylglycerol followed by mass spectrometry)). Conditions: 50 pM MAGL protein, 15 min pre-incubation, 30 min incubation at RT.
Format: biochemical
Description: Compounds of formula (II) were profiled for MAGL inhibitory activity by determining the enzymatic activity by following the hydrolysis of the natural substrate 2-arachidonoylglycerol (2-AG) resulting in arachidonic acid, which can be followed by mass spectrometry. This assay is hereinafter abbreviated “2-AG assay”.
Compounds of formula (II) were profiled for MAGL inhibitory activity by determining the enzymatic activity by following the hydrolysis of the natural substrate 2-arachidonoylglycerol (2-AG) resulting in arachidonic acid, which can be followed by mass spectrometry. This assay is hereinafter abbreviated “2-AG assay”. The 2-AG assay was carried out in 384 well polypropylene assay plates. Compound dilutions were made in 100% DMSO in a polypropylene plate in 3-fold dilution steps to give a final concentration range in the assay from 12.5 μM to 0.8 pM. Compound dilutions were added to MAGL protein in assay buffer (50 mM TRIS, 1 mM EDTA, 0.01% (v/v) Tween-20, 2.5% (v/v) DMSO). After shaking, the plate was incubated for 15 min at RT. To start the reaction, 2-arachidonoylglycerol in assay buffer was added. The final concentrations in the assay was 50 pM for MAGL protein and […] 2-arachidonoylglyerol. After shaking and 30 min incubation at RT, the reaction was quenched by the addition of two assay volumes of acetonitrile containing 4 μM of d8-arachidonic acid. The amount of arachidonic acid formed was traced by an online SPE system (Agilent Rapidfire) coupled to a triple quadrupole mass spectrometer. A C18 SPE cartridge (Agilent G9205A) was used in an acetonitrile/water liquid setup. The mass spectrometer was operated in negative electrospray mode following the mass transitions 303.1→259.1 for arachidonic acid and 311.1→267.0 for d8-arachidonic acid. The activity of the compounds was calculated based on the ratio of intensities [arachidonic acid/d8-arachidonic acid].

MAGL, sequence (Q99685 whole entry, species assumed): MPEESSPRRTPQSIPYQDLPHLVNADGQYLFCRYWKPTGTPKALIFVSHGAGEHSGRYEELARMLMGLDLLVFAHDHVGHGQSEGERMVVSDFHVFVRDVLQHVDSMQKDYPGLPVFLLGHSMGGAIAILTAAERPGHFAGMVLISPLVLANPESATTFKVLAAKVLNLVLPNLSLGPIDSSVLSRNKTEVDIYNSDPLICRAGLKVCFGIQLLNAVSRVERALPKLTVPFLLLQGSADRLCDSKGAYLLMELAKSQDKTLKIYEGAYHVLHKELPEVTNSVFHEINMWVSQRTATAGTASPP

Compound | IC50
C[C@H]1c2nn(C)c(-c3cncc(C(F)(F)F)n3)c2CCN1C(=O)c1cc(F)cc(-c2ccc(=O)[nH]c2)c1Cl [Example 68, 5-[2-chloro-3-[(7S)-2,7-dimethyl-3-[6-(trifluoromethyl)pyrazin-2-yl]-5,7-dihydro-4H-pyrazolo[3,4-c]pyridine-6-carbonyl]-5-fluoro-phenyl]-1H-pyridin-2-one] | 4290 nM
CC1c2nn(C)c(-c3cc(Cl)cc(C4(NS(C)(=O)=O)CC4)c3)c2CCN1C(=O)c1cc(F)cc(-c2cc[nH]c(=O)c2)c1Cl (stereo not shown) [Example 57, N-[1-[3-Chloro-5-[6-[2-chloro-5-fluoro-3-(2-oxo-1H-pyridin-4-yl)benzoyl]-2,7-dimethyl-5,7-dihydro-4H-pyrazolo[3,4-c]pyridin-3-yl]phenyl]cyclopropyl]methanesulfonamide] | 115 nM
C[C@H]1c2nn(C)c(-c3cc(F)cc(F)c3)c2CCN1C(=O)c1cc(F)cc(OCC2CNC(=O)C2)c1Cl (stereo in doubt) [Example 37, 4-[[2-Chloro-3-[3-(3,5-difluorophenyl)-2,7-dimethyl-5,7-dihydro-4H-pyrazolo[3,4-c]pyridine-6-carbonyl]-5-fluoro-phenoxy]methyl]pyrrolidin-2-one] | 5 nM
CC1c2nn(C)c(-c3cc(Cl)cc(C4(S(C)(=O)=O)CC4)c3)c2CCN1C(=O)c1cc(F)cc(-c2ccc(=O)[nH]c2)c1Cl (stereo not shown) [Example 60, 5-[2-Chloro-3-[3-[3-chloro-5-(1-methylsulfonylcyclopropyl)phenyl]-2,7-dimethyl-5,7-dihydro-4H-pyrazolo[3,4-c]pyridine-6-carbonyl]-5-fluoro-phenyl]-1H-pyridin-2-one] | 138 nM
C[C@@H]1c2nn(C)c(-c3cc(F)cc(F)c3)c2CCN1C(=O)c1cc(F)cc(OCC2CNC(=O)O2)c1Cl (single isomer, unassigned) [Example 51, 5-[[2-Chloro-3-[3-(3,5-difluorophenyl)-2,7-dimethyl-5,7-dihydro-4H-pyrazolo[3,4-c]pyridine-6-carbonyl]-5-fluoro-phenoxy]methyl]oxazolidin-2-one] | 187 nM
C[C@H]1c2nn(C)c(-c3cc(F)cc(F)c3)c2CCN1C(=O)c1cc(F)cc(-c2ccc(=O)[nH]c2)c1Cl [Example 29, 5-[2-Chloro-3-[(7S)-3-(3,5-difluorophenyl)-2,7-dimethyl-5,7-dihydro-4H-pyrazolo[3,4-c]pyridine-6-carbonyl]-5-fluoro-phenyl]-1H-pyridin-2-one] | 1 nM
CC1c2nn(C)c(-c3cc(F)cc(F)c3)c2CCN1C(=O)c1ccnc(OCC2CNC(=O)O2)c1Cl (stereo not shown) [Example 41, 5-[[3-Chloro-4-[3-(3,5-difluorophenyl)-2,7-dimethyl-5,7-dihydro-4H-pyrazolo[3,4-c]pyridine-6-carbonyl]-2-pyridyl]oxymethyl]oxazolidin-2-one] | 53 nM
COc1cccc(C(=O)N2CCc3c(nn(C)c3-c3cc(Cl)cc(C4(C(N)=O)CC4)c3)[C@@H]2C)c1Cl [Example 16, 1-[3-Chloro-5-[(7S)-6-(2-chloro-3-methoxy-benzoyl)-2,7-dimethyl-5,7-dihydro-4H-pyrazolo[3,4-c]pyridin-3-yl]phenyl]cyclopropanecarboxamide] | 101 nM
C[C@H]1c2nn(C)c(-c3cc(Cl)cc(C4(NS(C)(=O)=O)CC4)c3)c2CCN1C(=O)c1cc(F)cc(-c2c[nH]c(C#N)c2)c1Cl [Example 85, N-[1-[3-chloro-5-[(7S)-6-[2-chloro-3-(5-cyano-1H-pyrrol-3-yl)-5-fluoro-benzoyl]-2,7-dimethyl-5,7-dihydro-4H-pyrazolo[3,4-c]pyridin-3-yl]phenyl]cyclopropyl]methanesulfonamide] | 13.8 nM
C[C@H]1c2nn(C)c(-c3cc(F)cc(F)c3)c2CCN1C(=O)c1cc(F)cc(N2CC(S(C)(=O)=O)C2)c1Cl [Example 23, [2-Chloro-5-fluoro-3-(3-methylsulfonylazetidin-1-yl)phenyl]-[(7S)-3-(3,5-difluorophenyl)-2,7-dimethyl-5,7-dihydro-4H-pyrazolo[3,4-c]pyridin-6-yl]methanone] | 27 nM
C[C@H]1c2nn(C)c(-c3cncc(C(F)(F)F)n3)c2CCN1C(=O)c1cc(F)cc(-c2c[nH]c(C#N)c2)c1Cl [Example 64, 4-[2-chloro-3-[(7S)-2,7-dimethyl-3-[6-(trifluoromethyl)pyrazin-2-yl]-5,7-dihydro-4H-pyrazolo[3,4-c]pyridine-6-carbonyl]-5-fluoro-phenyl]-1H-pyrrole-2-carbonitrile] | 13 nM
C[C@@H]1c2nn(C)c(-c3cc(Cl)cc(C4(NS(C)(=O)=O)CC4)c3)c2CCN1C(=O)c1cc(F)cc(-c2c[nH]c(C#N)c2)c1Cl [Example 86, N-[1-[3-chloro-5-[(7R)-6-[2-chloro-3-(5-cyano-1H-pyrrol-3-yl)-5-fluoro-benzoyl]-2,7-dimethyl-5,7-dihydro-4H-pyrazolo[3,4-c]pyridin-3-yl]phenyl]cyclopropyl]methanesulfonamide] | 1010 nM

Other lines, results leading:

IC50 | Compound
2380 nM | COc1cccc(C(=O)N2CCn3c(-c4cccc(Cl)c4)nnc3[C@@H]2C)c1Cl [Example 116, (2-chloro-3-methoxy-phenyl)-[(5S)-9-(3-chlorophenyl)-5-methyl-1,4,7,8-tetrazabicyclo[4.3.0]nona-1(9),6-dien-4-yl]methanone]
24.6 nM | C[C@H]1c2nn(C)c(-c3cc(F)c(F)c(F)c3F)c2CCN1C(=O)c1cc(F)cc(-c2c[nH]c(C#N)c2)c1Cl [Example 90, 4-[2-chloro-3-[(7S)-2,7-dimethyl-3-(2,3,4,5-tetrafluorophenyl)-5,7-dihydro-4H-pyrazolo[3,4-c]pyridine-6-carbonyl]-5-fluoro-phenyl]-1H-pyrrole-2-carbonitrile]
294 nM | C[C@H]1c2nn(C)c(-c3cc(F)cc(F)c3)c2CCN1C(=O)c1cc(Cl)cc(OC[C@@H]2CNC(=O)O2)c1Cl (single isomer, unassigned) [Example 108]
2.09 nM | C[C@H]1c2nn(C)c(-c3cc(F)cc(F)c3)c2CCN1C(=O)c1cccc(OCC2CNC(=O)O2)c1Cl (stereo partly drawn) [Example 110, 5-[[2-chloro-3-[(7S)-3-(3,5-difluorophenyl)-2,7-dimethyl-5,7-dihydro-4H-pyrazolo[3,4-c]pyridine-6-carbonyl]phenoxy]methyl]oxazolidin-2-one]
4.35 nM | C[C@H]1c2nn(C)c(-c3cc(F)c(F)c(F)c3)c2CCN1C(=O)c1cc(F)cc(-c2c[nH]c(C#N)c2)c1Cl [Example 92, 4-[2-chloro-3-[(7S)-2,7-dimethyl-3-(3,4,5-trifluorophenyl)-5,7-dihydro-4H-pyrazolo[3,4-c]pyridine-6-carbonyl]-5-fluoro-phenyl]-1H-pyrrole-2-carbonitrile]
1.77 nM | C[C@H]1c2nn(C)c(-c3cc(Cl)cc(C4(NS(C)(=O)=O)CC4)c3)c2CCN1C(=O)c1cc(F)cc(CCc2c[nH]nn2)c1Cl [Example 88, N-[1-[3-chloro-5-[(7S)-6-[2-chloro-5-fluoro-3-[2-(1H-triazol-4-yl)ethyl]benzoyl]-2,7-dimethyl-5,7-dihydro-4H-pyrazolo[3,4-c]pyridin-3-yl]phenyl]cyclopropyl]methanesulfonamide]
371 nM | C[C@H]1c2nn(C)c(-c3cc(F)cc(F)c3)c2CCN1C(=O)c1cc(Cl)cc(OC[C@H]2CNC(=O)O2)c1Cl (single isomer, unassigned) [Example 109]
